Data as given in the supplement of paper PMC10307832.

What was measured:
Experiment in all cases: relative viability (nuclei count vs DMSO), 5 days (fraction); higher = more cells survive
Carfilzomib + Vorinostat = compound: CC(C)C[C@H](NC(=O)[C@H](CCc1ccccc1)NC(=O)CN1CCOCC1)C(=O)N[C@@H](Cc1ccccc1)C(=O)N[C@@H](CC(C)C)C(=O)[C@@]1(C)CO1 [Carfilzomib] + O=C(CCCCCCC(=O)Nc1ccccc1)NO [Vorinostat] (partner 1 µM)
In short: (§1)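 For relative viability, nuclei counts in treated wells were divided by those in vehicle wells. Lung cancer cell lines had been pin-tool dosed in 1536-well plates the day after seeding and cultured for 5 days, then fixed and stained in one step (final 0.05% Triton X-100, 1% formaldehyde, 1 ug/ml Hoechst) and imaged at 4×. Doses were one drug alone or a fixed anchor-drug dose plus five library-drug doses (not always all listed) in √10 steps, and values are duplicate-plate medians.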

Olaparib + Tozasertib = compound: O=C(c1cc(Cc2n[nH]c(=O)c3ccccc23)ccc1F)N1CCN(C(=O)C2CC2)CC1 [Olaparib] + Cc1cc(Nc2cc(N3CCN(C)CC3)nc(Sc3ccc(NC(=O)C4CC4)cc3)n2)n[nH]1 [Tozasertib] (partner 0.1 µM)
In short: as §1

Carfilzomib + Bortezomib = compound: CC(C)C[C@H](NC(=O)[C@H](CCc1ccccc1)NC(=O)CN1CCOCC1)C(=O)N[C@@H](Cc1ccccc1)C(=O)N[C@@H](CC(C)C)C(=O)[C@@]1(C)CO1 [Carfilzomib] + CC(C)C[C@H](NC(=O)[C@H](Cc1ccccc1)NC(=O)c1cnccn1)B(O)O [Bortezomib] (partner 0.002 µM)
In short: as §1

Olaparib + Trametinib = compound: O=C(c1cc(Cc2n[nH]c(=O)c3ccccc23)ccc1F)N1CCN(C(=O)C2CC2)CC1 [Olaparib] + CC(=O)Nc1cccc(-n2c(=O)n(C3CC3)c(=O)c3c(Nc4ccc(I)cc4F)n(C)c(=O)c(C)c32)c1 [Trametinib] (partner 0.02 µM)
In short: as §1

Row | Cell Line | relative viability (Carfilzomib + Vorinostat; first compound 0.001 µM) | relative viability (Carfilzomib + Vorinostat; first compound 0.003162 µM) | relative viability (Carfilzomib + Vorinostat; first compound 0.01 µM) | relative viability (Carfilzomib + Vorinostat; first compound 0.03162 µM) | relative viability (Carfilzomib + Vorinostat; first compound 0.1 µM) | relative viability (Olaparib + Tozasertib; first compound 0.08 µM) | relative viability (Olaparib + Tozasertib; first compound 0.253 µM) | relative viability (Olaparib + Tozasertib; first compound 2.53 µM) | relative viability (Olaparib + Tozasertib; first compound 8 µM) | relative viability (Carfilzomib + Bortezomib; first compound 0.001 µM) | relative viability (Carfilzomib + Bortezomib; first compound 0.003162 µM) | relative viability (Carfilzomib + Bortezomib; first compound 0.01 µM) | relative viability (Carfilzomib + Bortezomib; first compound 0.03162 µM) | relative viability (Carfilzomib + Bortezomib; first compound 0.1 µM) | relative viability (Olaparib + Trametinib; first compound 0.08 µM) | relative viability (Olaparib + Trametinib; first compound 0.253 µM) | relative viability (Olaparib + Trametinib; first compound 2.53 µM) | relative viability (Olaparib + Trametinib; first compound 8 µM)
1 | RERF-LC-KJ | 0.7 | 0.683 | 0.676 | 0.392 | 0.242 | 0.531 | 0.453 | 0.505 | 0.475 | 0.994 | 1.05 | 0.926 | 0.47 | 0.258 | 0.98 | 0.825 | 0.949 | 0.878
2 | SK-LU-1 | 0.772 | 0.864 | 0.533 | 0.219 | 0.198 | 0.355 | 0.323 | 0.335 | 0.247 | 0.878 | 1.19 | 0.797 | 0.195 | 0.237 | 0.515 | 0.402 | 0.496 | 0.417
3 | SW 1573 | 0.648 | 1.31 | 0.243 | 0.0435 | 0.041 | 0.148 | 0.165 | 0.234 | 0.172 | 0.986 | 0.959 | 0.546 | 0.114 | 0.0592 | 0.591 | 0.565 | 0.515 | 0.473
4 | UMC-11 | 0.413 | 0.395 | 0.394 | 0.308 | 0.115 | 0.231 | 0.208 | 0.235 | 0.253 | 0.66 | 0.887 | 0.701 | 0.533 | 0.179 | 0.651 | 0.644 | 0.59 | 0.376
